Experimental data taken from PubChem BioAssay AID1845195 (Molecular Pharmacology Branch, DTP, NCI, 2023).
pIC50: −log10 of the molar value.

Tested on: 156681-154-R-J1 tumor spheroid viability
Assay: Anticancer human tumor 156681-154-R-J1 patient-derived melanoma cell line growth inhibition
Details: spheroids with HUVEC and MSC; for pIC50: curve of first compound; for viability, T/C: stronger effect = lower value
How it was run: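 Complex tumor spheroids combined malignant cells with endothelial cells and mesenchymal stem cells. DNA-damaging drugs and DNA repair inhibitors were tested alone and in combination, at half-log dilutions down from clinical Cmax (top 10 microM if Cmax unknown), 0.25% DMSO final.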

[1] = second compound 30 pM, first compound 0.0949 µM
[2] = second compound 30 pM, first compound 0.3 µM
[3] = second compound 30 pM, first compound 0.949 µM
[4] = second compound 30 pM, first compound 3 µM
[5] = second compound 94.9 pM, first compound 0.0949 µM
[6] = second compound 94.9 pM, first compound 0.3 µM
[7] = second compound 94.9 pM, first compound 0.949 µM
[8] = second compound 94.9 pM, first compound 3 µM
[9] = second compound 0.0003 µM, first compound 0.0949 µM
[10] = second compound 0.0003 µM, first compound 0.3 µM
[11] = second compound 0.0003 µM, first compound 0.949 µM
[12] = second compound 0.0003 µM, first compound 3 µM
[13] = second compound 0.000949 µM, first compound 0.0949 µM
[14] = second compound 0.000949 µM, first compound 0.3 µM
[15] = second compound 0.000949 µM, first compound 0.949 µM
[16] = second compound 0.000949 µM, first compound 3 µM
[17] = second compound 0.003 µM, first compound 0.0949 µM
[18] = second compound 0.003 µM, first compound 0.3 µM
[19] = second compound 0.003 µM, first compound 0.949 µM
[20] = second compound 0.003 µM, first compound 3 µM
[21] = second compound 0.003 µM, first compound 0.00949 µM
[22] = second compound 0.003 µM, first compound 0.03 µM
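Also: spheroids exposed to compounds for 7 days before readout.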
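For viability, T/C in this document: percent of vehicle control viability where 100% = DMSO-treated spheroids.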

Compound: O=C(c1cc(Cc2n[nH]c(=O)c3ccccc23)ccc1F)N1CCN(C(=O)C2CC2)CC1 + COc1cc2c(cc1O)CCNC21CSC2c3c(OC(C)=O)c(C)c4c(c3C(COC1=O)N1C(O)C3Cc5cc(C)c(OC)c(O)c5C(C21)N3C)OCO4
- pIC50 (second compound 30 pM): < 4.52
- pIC50 (second compound 94.9 pM): < 4.52
- pIC50 (second compound 0.0003 µM): 5.23
- pIC50 (second compound 0.000949 µM): > 7.02
- pIC50 (second compound 0.003 µM): > 7.02
- viability, T/C [1]: 83.5%
- viability, T/C [2]: 77%
- viability, T/C [3]: 73.4%
- viability, T/C [4]: 72.2%
- viability, T/C (second compound 30 pM, first compound 9.49 µM): 65.3%
- viability, T/C (second compound 30 pM, first compound 30 µM): 60.1%
- viability, T/C [5]: 82.1%
- viability, T/C [6]: 85.9%
- viability, T/C [7]: 82.7%
- viability, T/C [8]: 66.3%
- viability, T/C (second compound 94.9 pM, first compound 9.49 µM): 69%
- viability, T/C (second compound 94.9 pM, first compound 30 µM): 53.5%
- viability, T/C [9]: 69.8%
- viability, T/C [10]: 68.6%
- viability, T/C [11]: 64.1%
- viability, T/C [12]: 66.8%
- viability, T/C (second compound 0.0003 µM, first compound 9.49 µM): 37.8%
- viability, T/C (second compound 0.0003 µM, first compound 30 µM): 21.2%
- viability, T/C [13]: 4.61%
- viability, T/C [14]: 4.05%
- viability, T/C [15]: 3.32%
- viability, T/C [16]: 4.15%
- viability, T/C (second compound 0.000949 µM, first compound 9.49 µM): 0.45%
- viability, T/C (second compound 0.000949 µM, first compound 30 µM): 0.13%
- viability, T/C [17]: 0.12%
- viability, T/C [18]: 0.12%
- viability, T/C [19]: 0.1%
- viability, T/C [20]: 0.11%
- viability, T/C (second compound 0.003 µM, first compound 9.49 µM): 0.11%
- viability, T/C (second compound 0.003 µM, first compound 30 µM): 0.17%

Compound: CNCc1ccc(-c2cc(-c3nc(-c4ccc(S(=O)(=O)C(C)C)cc4)cnc3N)on2)cc1 + CC[C@@]1(O)C(=O)OCc2c1cc1n(c2=O)Cc2cc3c(CN(C)C)c(O)ccc3nc2-1
- pIC50 (second compound 0.003 µM): 6.13
- pIC50 (second compound 0.00949 µM): 6.35
- pIC50 (second compound 0.03 µM): 6.53
- pIC50 (second compound 0.0949 µM): > 8.02
- pIC50 (second compound 0.3 µM): > 8.02
- viability, T/C [21]: 103%
- viability, T/C [22]: 93.6%
- viability, T/C [17]: 82.1%
- viability, T/C [18]: 65.2%
- viability, T/C [19]: 46.8%
- viability, T/C [20]: 20.3%
- viability, T/C (second compound 0.00949 µM, first compound 0.00949 µM): 136%
- viability, T/C (second compound 0.00949 µM, first compound 0.03 µM): 92.3%
- viability, T/C (second compound 0.00949 µM, first compound 0.0949 µM): 73.8%
- viability, T/C (second compound 0.00949 µM, first compound 0.3 µM): 58.8%
- viability, T/C (second compound 0.00949 µM, first compound 0.949 µM): 46.8%
- viability, T/C (second compound 0.00949 µM, first compound 3 µM): 7.92%
- viability, T/C (second compound 0.03 µM, first compound 0.00949 µM): 66%
- viability, T/C (second compound 0.03 µM, first compound 0.03 µM): 60.1%
- viability, T/C (second compound 0.03 µM, first compound 0.0949 µM): 60.1%
- viability, T/C (second compound 0.03 µM, first compound 0.3 µM): 50.4%
- viability, T/C (second compound 0.03 µM, first compound 0.949 µM): 27.5%
- viability, T/C (second compound 0.03 µM, first compound 3 µM): 7.5%
- viability, T/C (second compound 0.0949 µM, first compound 0.00949 µM): 17.7%
- viability, T/C (second compound 0.0949 µM, first compound 0.03 µM): 19.3%
- viability, T/C (second compound 0.0949 µM, first compound 0.0949 µM): 24.2%
- viability, T/C (second compound 0.0949 µM, first compound 0.3 µM): 14.5%
- viability, T/C (second compound 0.0949 µM, first compound 0.949 µM): 12.8%
- viability, T/C (second compound 0.0949 µM, first compound 3 µM): 0.15%
- viability, T/C (second compound 0.3 µM, first compound 0.00949 µM): 31.1%
- viability, T/C (second compound 0.3 µM, first compound 0.03 µM): 26.9%
- viability, T/C (second compound 0.3 µM, first compound 0.0949 µM): 24.2%
- viability, T/C (second compound 0.3 µM, first compound 0.3 µM): 24.2%
- viability, T/C (second compound 0.3 µM, first compound 0.949 µM): 14.8%
- viability, T/C (second compound 0.3 µM, first compound 3 µM): 10%

Compound: Cc1sc2c(c1C)C(c1ccc(Cl)cc1)=NC(CC(=O)Nc1ccc(O)cc1)c1nnc(C)n1-2 (stereo not given) + COc1cc2c(cc1O)CCNC21CSC2c3c(OC(C)=O)c(C)c4c(c3C(COC1=O)N1C(O)C3Cc5cc(C)c(OC)c(O)c5C(C21)N3C)OCO4
- pIC50 (second compound 30 pM): < 5.52
- pIC50 (second compound 94.9 pM): 5.69
- pIC50 (second compound 0.0003 µM): 6.71
- pIC50 (second compound 0.000949 µM): > 8.02
- pIC50 (second compound 0.003 µM): > 8.02
- viability, T/C (second compound 30 pM, first compound 0.00949 µM): 104%
- viability, T/C (second compound 30 pM, first compound 0.03 µM): 92.1%
- viability, T/C [1]: 103%
- viability, T/C [2]: 109%
- viability, T/C [3]: 68.3%
- viability, T/C [4]: 61.8%
- viability, T/C (second compound 94.9 pM, first compound 0.00949 µM): 108%
- viability, T/C (second compound 94.9 pM, first compound 0.03 µM): 97.1%
- viability, T/C [5]: 95.8%
- viability, T/C [6]: 85.5%
- viability, T/C [7]: 82.5%
- viability, T/C [8]: 34.7%
- viability, T/C (second compound 0.0003 µM, first compound 0.00949 µM): 90.7%
- viability, T/C (second compound 0.0003 µM, first compound 0.03 µM): 76.7%
- viability, T/C [9]: 64.9%
- viability, T/C [10]: 45.2%
- viability, T/C [11]: 15.7%
- viability, T/C [12]: 9.14%
- viability, T/C (second compound 0.000949 µM, first compound 0.00949 µM): 1.73%
- viability, T/C (second compound 0.000949 µM, first compound 0.03 µM): 3.32%
- viability, T/C [13]: 2.97%
- viability, T/C [14]: 1.78%
- viability, T/C [15]: 0.17%
- viability, T/C [16]: 0.15%
- viability, T/C [21]: 0.14%
- viability, T/C [22]: 0.17%
- viability, T/C [17]: 0.12%
- viability, T/C [18]: 0.12%
- viability, T/C [19]: 0.12%
- viability, T/C [20]: 0.21%
